Experimental findings from patent US20150239831A1, “INHIBITORS OF CENTRAL NERVOUS SYSTEM VASOACTIVE INHIBITORY PEPTIDE RECEPTOR 2” (The Trustees Of Columbia University In The City Of New York, priority 2012, published 2015) are described below.

What all share (type): cell-based
Set-up in all cases: expressed in transfected cells; host or cells: HEK293 cells transfected with VIPR2 in pCDNA3.1 (as described)

The target in assay [1] is T1, VIPR2 (Homo sapiens, UniProt P41587).
T1 sequence (P41587 24-438): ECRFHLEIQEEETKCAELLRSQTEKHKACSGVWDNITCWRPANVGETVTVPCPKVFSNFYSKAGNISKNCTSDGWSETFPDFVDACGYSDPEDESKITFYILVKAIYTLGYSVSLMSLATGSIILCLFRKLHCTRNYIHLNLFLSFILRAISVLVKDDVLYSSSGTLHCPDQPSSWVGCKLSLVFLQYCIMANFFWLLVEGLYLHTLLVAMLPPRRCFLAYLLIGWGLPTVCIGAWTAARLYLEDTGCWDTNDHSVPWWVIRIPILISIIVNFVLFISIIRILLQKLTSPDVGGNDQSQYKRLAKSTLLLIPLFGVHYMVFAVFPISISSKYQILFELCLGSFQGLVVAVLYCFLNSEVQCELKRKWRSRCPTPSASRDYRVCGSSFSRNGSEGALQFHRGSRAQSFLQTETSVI
Put plainly: Inhibition of VIP-induced cAMP elevation (% Activity cAMP). The method in brief:
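HEK293 cells stably transfected with human VIPR2 were incubated with inhibitor and VIP for 30 min, then cAMP was detected by HTRF after at least 1 h at room temperature. The 665/620 nm ratio ×10,000 was calculated.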

For assay [2], the target named is T1, VIPR2. Put plainly: Inhibition of VIP-induced β-arrestin recruitment (% Activity Arrestin). The method in brief:
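Read-out is β-gal fragment complementation (luminescence) between ProLink-hVIPR2 and EA-β-arrestin2 in transiently transfected HEK293 cells. Cells rested overnight, then exposed to inhibitor 2 h at 37 °C before detection reagent (5 min–1 h, room temperature); values are % activity against VIP-driven recruitment.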
In general terms: Recruitment of arrestin is a read-out of receptor activation apart from second messengers.

In assay [3] the target is T1, VIPR2. Briefly: % Activity: inhibition of VIP-induced cAMP elevation and β-arrestin recruitment (Table 2). The method in brief: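 Recruitment of β-arrestin measured by β-gal fragment complementation luminescence in HEK293 cells co-expressing VIPR2-ProLink and β-arrestin2-EA after 2 h compound at 37° C. VIP-driven cAMP rise in stable hVIPR2 HEK293 cells measured by HTRF after 30 min with inhibitor and VIP.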

A word on the inhibition: it is the drop in the measured response relative to a control, in per cent. Consider `O=C(O)c1ccc(S(=O)(=O)NC[C@@H](O)C[C@@H](Cc2ccccc2)C(=O)N[C@H]2c3ccccc3C[C@H]2O)cc1` [Compound X094], for which, at VIPR2 [1] (Batch 3), the inhibition at 0.5 µM is 7.4%, the inhibition at 1 µM came out at 6.4% and the inhibition at 5 µM came out at 26%. Moreover, on VIPR2 [2] (Batch 3), the inhibition at 0.5 µM was determined as 6.4%, the inhibition at 1 µM was -1.8% and the inhibition at 5 µM came out at 0.2%. Further, the “% Activity” value on VIPR2 [3] is 13.1%.
For the molecule `CCN(CC)C(=O)[C@@H](Cc1ccccc1)C[C@H](O)CNS(=O)(=O)c1ccc([N+](=O)[O-])cc1` [Compound B15B], on VIPR2 [1] (Batch 2), the inhibition at 0.5 µM came out at 0.5%, the inhibition at 1 µM was -8.4% and the inhibition at 5 µM was -10.5%. On VIPR2 [2] (Batch 2), the inhibition at 0.5 µM is -3.6%, the inhibition at 1 µM is 1.2% and the inhibition at 5 µM was -2.7%. For the same molecule, at VIPR2 [3], the “% Activity” value is on record as −6.6%.
`O=C(CCl)NC[C@@H](O)C[C@@H](Cc1ccccc1)C(=O)N[C@H]1c2ccccc2C[C@H]1O` [Compound A7]: on VIPR2 [1] (Batch 1), the inhibition at 0.5 µM worked out at 18.4%, the inhibition at 1 µM was found to be 19.2% and the inhibition at 5 µM stood at 15.6%. Besides, on VIPR2 [2] (Batch 1), the inhibition at 0.5 µM was 9.9%, the inhibition at 1 µM worked out at 23.7% and the inhibition at 5 µM is 17.5%. For the same molecule, the “% Activity” value at VIPR2 [3] is on record as 16.55%.
Consider `Cc1cc(S(=O)(=O)NC[C@@H](O)C[C@@H](Cc2ccccc2)C(=O)N[C@H]2c3ccccc3C[C@H]2O)c(C)cc1Cl` [Compound A3], for which, on VIPR2 [1] (Batch 1), the inhibition at 0.5 µM stood at 20.6%, the inhibition at 1 µM is 21.6% and the inhibition at 5 µM was determined as 41.1%. For the same molecule, on VIPR2 [2] (Batch 1), the inhibition at 0.5 µM stood at 17.6%, the inhibition at 1 µM turned out to be 30.2% and the inhibition at 5 µM is 0.6%. Besides, at VIPR2 [3], the “% Activity” value turned out to be 20.85%.
With `O=C(NC1CCCCCC1)[C@@H](Cc1ccccc1)C[C@H](O)CNS(=O)(=O)c1ccc([N+](=O)[O-])cc1` [Compound B5B], at VIPR2 [1] (Batch 2), the inhibition at 0.5 µM is 15.5%, the inhibition at 1 µM is 10.6% and the inhibition at 5 µM was determined as 14.3%. Also, at VIPR2 [2] (Batch 2), the inhibition at 0.5 µM is -4%, the inhibition at 1 µM was determined as 3.6% and the inhibition at 5 µM was 6.8%. For the same molecule, the “% Activity” value on VIPR2 [3] amounted to 10.55%.
Consider `O=C(NC[C@@H](O)C[C@@H](Cc1ccccc1)C(=O)N[C@H]1c2ccccc2C[C@H]1O)c1ccco1` [Compound A2], for which, at VIPR2 [1] (Batch 1), the inhibition at 0.5 µM turned out to be 20.8%, the inhibition at 1 µM came to 22.5% and the inhibition at 5 µM was 19.1%. On VIPR2 [2] (Batch 1), the inhibition at 0.5 µM turned out to be 30.3%, the inhibition at 1 µM is 27.7% and the inhibition at 5 µM came to 33.3%. The “% Activity” value on VIPR2 [3] is on record as 26.2%.
For the molecule `Nc1ccc(S(=O)(=O)NC[C@@H](O)C[C@@H](Cc2ccccc2)C(=O)N[C@H]2c3ccccc3C[C@H]2O)cc1` [Compound X081], at VIPR2 [1] (Batch 3), the inhibition at 0.5 µM was 8.4%, the inhibition at 1 µM stood at 18.6% and the inhibition at 5 µM came out at 33.3%. Besides, at VIPR2 [2] (Batch 3), the inhibition at 0.5 µM is -5.6%, the inhibition at 1 µM was -5.5% and the inhibition at 5 µM came out at 6.7%. In addition, the “% Activity” value at VIPR2 [3] was found to be 20%.
Regarding `CCN(CC)C(=O)[C@H](Cc1ccccc1)C[C@H](O)CNS(=O)(=O)c1ccc([N+](=O)[O-])cc1` [Compound B15A], on VIPR2 [1] (Batch 2), the inhibition at 0.5 µM is -8.1%, the inhibition at 1 µM was -6.1% and the inhibition at 5 µM is -4.3%. For the same molecule, on VIPR2 [2] (Batch 2), the inhibition at 0.5 µM was -5.4%, the inhibition at 1 µM came to 7.9% and the inhibition at 5 µM was found to be 5.7%. Further, on VIPR2 [3], the “% Activity” value is 0.7%.
For `O=C(NC[C@@H](O)C[C@@H](Cc1ccccc1)C(=O)N[C@H]1c2ccccc2C[C@H]1O)C1CCCCCC1` [Compound A8], at VIPR2 [1] (Batch 1), the inhibition at 0.5 µM came to 18.4%, the inhibition at 1 µM amounted to 17% and the inhibition at 5 µM is 17%. On VIPR2 [2] (Batch 1), the inhibition at 0.5 µM stood at 24.4%, the inhibition at 1 µM was 16.4% and the inhibition at 5 µM stood at 10.5%. Also, at VIPR2 [3], the “% Activity” value was 13.75%.
Regarding `O=C(NC[C@@H](O)C[C@@H](Cc1ccccc1)C(=O)N[C@H]1c2ccccc2C[C@H]1O)c1cccc([N+](=O)[O-])c1` [M], on VIPR2 [1] (Batch 1), the inhibition at 0.5 µM was 11.8%, the inhibition at 1 µM was 11% and the inhibition at 5 µM amounted to 13.5%. For the same molecule, on VIPR2 [2] (Batch 1), the inhibition at 0.5 µM was found to be 19.9%, the inhibition at 1 µM was 7.4% and the inhibition at 5 µM is -4%. Further, the “% Activity” value at VIPR2 [3] is given as 4.75%.
For the molecule `CCCCNC(=O)[C@@H](Cc1ccccc1)C[C@H](O)CNS(=O)(=O)c1ccc([N+](=O)[O-])cc1` [Compound B7B], at VIPR2 [1] (Batch 2), the inhibition at 0.5 µM was -1.5%, the inhibition at 1 µM is 0.6% and the inhibition at 5 µM is 6.2%. For the same molecule, on VIPR2 [2] (Batch 2), the inhibition at 0.5 µM worked out at 26.8%, the inhibition at 1 µM was found to be 20.4% and the inhibition at 5 µM stood at 20.7%. In addition, the “% Activity” value on VIPR2 [3] is 13.45%.
`CS(=O)(=O)NC[C@@H](O)C[C@@H](Cc1ccccc1)C(=O)N[C@H]1c2ccccc2C[C@H]1O` [Compound A5]: at VIPR2 [1] (Batch 1), the inhibition at 0.5 µM is 21.4%, the inhibition at 1 µM came to 21.9% and the inhibition at 5 µM turned out to be 18.5%. At VIPR2 [2] (Batch 1), the inhibition at 0.5 µM stood at 17.3%, the inhibition at 1 µM was 31.6% and the inhibition at 5 µM is 23.4%. Further, at VIPR2 [3], the “% Activity” value worked out at 20.95%.
Take `CCN(CC)C(=O)c1ccc(S(=O)(=O)NC[C@@H](O)C[C@@H](Cc2ccccc2)C(=O)N[C@H]2c3ccccc3C[C@H]2O)cc1` [Compound X096]: on VIPR2 [1] (Batch 3), the inhibition at 0.5 µM was determined as 2.5%, the inhibition at 1 µM is 5.9% and the inhibition at 5 µM was 31.8%. Moreover, at VIPR2 [2] (Batch 3), the inhibition at 0.5 µM stood at 0.3%, the inhibition at 1 µM stood at 3.1% and the inhibition at 5 µM was -1.2%. For the same molecule, on VIPR2 [3], the “% Activity” value is on record as 15.3%.
Consider `O=C([C@H](Cc1ccccc1)C[C@H](O)CNS(=O)(=O)c1ccc([N+](=O)[O-])cc1)N1CCCCC1` [Compound B18A], for which, at VIPR2 [1] (Batch 2), the inhibition at 0.5 µM was -4.8%, the inhibition at 1 µM was -4.8% and the inhibition at 5 µM worked out at 0.5%. On VIPR2 [2] (Batch 2), the inhibition at 0.5 µM was -10.2%, the inhibition at 1 µM was -11.5% and the inhibition at 5 µM is -2.8%. Besides, at VIPR2 [3], the “% Activity” value is −1.15%.
For `CCNC(=O)[C@@H](Cc1ccccc1)C[C@H](O)CNS(=O)(=O)c1ccc([N+](=O)[O-])cc1` [Compound B16B], at VIPR2 [1] (Batch 2), the inhibition at 0.5 µM was -13.2%, the inhibition at 1 µM was -0.9% and the inhibition at 5 µM is -22.2%. Also, on VIPR2 [2] (Batch 2), the inhibition at 0.5 µM is -10%, the inhibition at 1 µM was 6% and the inhibition at 5 µM was -7.6%. On VIPR2 [3], the “% Activity” value is given as −14.9%.
On to `O=C(NC[C@@H](O)C[C@@H](Cc1ccccc1)C(=O)N[C@H]1c2ccccc2C[C@H]1O)c1cccc(Br)c1` [Q], for which, at VIPR2 [1] (Batch 1), the inhibition at 0.5 µM was 17.4%, the inhibition at 1 µM came to 18.5% and the inhibition at 5 µM worked out at 20.3%. On VIPR2 [2] (Batch 1), the inhibition at 0.5 µM was -3.8%, the inhibition at 1 µM came to 6.8% and the inhibition at 5 µM turned out to be 5.2%. For the same molecule, at VIPR2 [3], the “% Activity” value is given as 12.75%.
As to `CC(=O)Nc1ccc(S(=O)(=O)NC[C@H](C[C@@H](Cc2ccccc2)C(=O)N[C@H]2c3ccccc3C[C@H]2O)OC(C)=O)cc1` [Compound X089], at VIPR2 [1] (Batch 3), the inhibition at 0.5 µM was -4.3%, the inhibition at 1 µM is 32.3% and the inhibition at 5 µM was determined as 3%. In addition, at VIPR2 [2] (Batch 3), the inhibition at 0.5 µM was -9.8%, the inhibition at 1 µM is -1.8% and the inhibition at 5 µM worked out at 10.5%. The “% Activity” value on VIPR2 [3] was determined as 6.75%.
In the case of `O=C(Nc1ccc(S(=O)(=O)NC[C@@H](O)C[C@@H](Cc2ccccc2)C(=O)N[C@H]2c3ccccc3C[C@H]2O)cc1)C1CC1` [Compound X093], at VIPR2 [1] (Batch 3), the inhibition at 0.5 µM is -2.4%, the inhibition at 1 µM was found to be 23% and the inhibition at 5 µM was 34.3%. On VIPR2 [2] (Batch 3), the inhibition at 0.5 µM came to 6.4%, the inhibition at 1 µM is -0.3% and the inhibition at 5 µM is -4.2%. For the same molecule, the “% Activity” value on VIPR2 [3] was 15.05%.
